Measured values: ChEMBL document CHEMBL4627308, “Identification of C10 nitrogen-containing aporphines with dopamine D1 versus D5 receptor selectivity” (Bioorg Med Chem Lett, 2020)

Columns and labels:
[1] = Microsomal stability in human liver microsomes assessed as parent compound remaining measured immediately; format: ADME, Microsome
[2] = Microsomal stability in human liver microsomes assessed as parent compound remaining measured after 15 mins; format: ADME, Microsome; conditions: 0.25 h
[3] = Microsomal stability in human liver microsomes assessed as parent compound remaining measured after 120 mins; format: ADME, Microsome; conditions: 2 h
[4] = Microsomal stability in human liver microsomes assessed as parent compound remaining measured after 60 mins; format: ADME, Microsome; conditions: 1 h
[5] = Microsomal stability in human liver microsomes assessed as parent compound remaining measured after 30 mins; format: ADME, Microsome; conditions: 0.5 h
[6] = target: D(1B) dopamine receptor (Homo sapiens) (UniProt P21918); test: Inhibition of human D5 receptor relative to control; parameters: concentration or dose not given beside the values; conditions: concentration not given here
[7] = target: T1, 5-hydroxytryptamine receptor 2A (Homo sapiens, UniProt P28223)
Description: Binding affinity to human 5HT2A receptor

D(2) dopamine receptor [8] = target: T2, D(2) dopamine receptor (Homo sapiens, UniProt P14416); test: Binding affinity to human D2 receptor
D(1A) dopamine receptor [9] = target: T3, D(1A) dopamine receptor (Homo sapiens, UniProt P21728); test: Binding affinity to human D1 receptor
[10] = target: T4, 5-hydroxytryptamine receptor 1A (Homo sapiens, UniProt P08908); test: Binding affinity to human 5HT1A receptor
T4 sequence (P08908 whole entry): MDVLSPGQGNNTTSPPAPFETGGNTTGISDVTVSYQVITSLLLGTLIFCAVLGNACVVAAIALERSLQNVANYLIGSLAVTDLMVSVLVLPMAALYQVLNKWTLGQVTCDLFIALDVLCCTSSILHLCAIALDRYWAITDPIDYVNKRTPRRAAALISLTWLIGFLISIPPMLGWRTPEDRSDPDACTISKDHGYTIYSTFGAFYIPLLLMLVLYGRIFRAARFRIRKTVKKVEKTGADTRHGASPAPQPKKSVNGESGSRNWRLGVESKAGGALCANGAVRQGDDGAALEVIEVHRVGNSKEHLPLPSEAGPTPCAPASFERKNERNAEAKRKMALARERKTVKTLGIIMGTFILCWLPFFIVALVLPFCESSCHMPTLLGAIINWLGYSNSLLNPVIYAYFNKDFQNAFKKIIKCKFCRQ

[11] = target: T5, 5-hydroxytryptamine receptor 1A (Homo sapiens) (UniProt P08908); test: Inhibition of human 5HT1A receptor relative to control; parameters: concentration or dose not given beside the values; conditions: concentration not given here
T5 sequence (whole entry): T4 sequence (P08908 whole entry)

[12] = target: T1, 5-hydroxytryptamine receptor 2A; test: Inhibition of human 5HT2A receptor relative to control; parameters: concentration or dose not given beside the values; conditions: concentration not given here
D(2) dopamine receptor [13] = target: T2, D(2) dopamine receptor; test: Inhibition of human D2 receptor relative to control; parameters: concentration or dose not given beside the values; conditions: concentration not given here
D(1A) dopamine receptor [14] = target: T3, D(1A) dopamine receptor; test: Inhibition of human D1 receptor relative to control; parameters: concentration or dose not given beside the values; conditions: concentration not given here

T3 sequence (P21728 whole entry): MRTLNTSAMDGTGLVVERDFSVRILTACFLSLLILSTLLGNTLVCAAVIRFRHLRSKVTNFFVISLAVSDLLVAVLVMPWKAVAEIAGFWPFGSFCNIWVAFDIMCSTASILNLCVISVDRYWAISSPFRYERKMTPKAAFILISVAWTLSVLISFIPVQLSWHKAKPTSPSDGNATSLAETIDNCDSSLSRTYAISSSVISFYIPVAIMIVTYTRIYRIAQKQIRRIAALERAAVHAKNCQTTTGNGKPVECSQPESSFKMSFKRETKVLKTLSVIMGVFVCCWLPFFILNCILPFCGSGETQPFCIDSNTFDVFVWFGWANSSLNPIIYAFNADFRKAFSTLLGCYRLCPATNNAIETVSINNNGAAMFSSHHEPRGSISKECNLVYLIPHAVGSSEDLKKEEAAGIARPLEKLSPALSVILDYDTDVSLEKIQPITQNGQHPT
T2 sequence (P14416 whole entry): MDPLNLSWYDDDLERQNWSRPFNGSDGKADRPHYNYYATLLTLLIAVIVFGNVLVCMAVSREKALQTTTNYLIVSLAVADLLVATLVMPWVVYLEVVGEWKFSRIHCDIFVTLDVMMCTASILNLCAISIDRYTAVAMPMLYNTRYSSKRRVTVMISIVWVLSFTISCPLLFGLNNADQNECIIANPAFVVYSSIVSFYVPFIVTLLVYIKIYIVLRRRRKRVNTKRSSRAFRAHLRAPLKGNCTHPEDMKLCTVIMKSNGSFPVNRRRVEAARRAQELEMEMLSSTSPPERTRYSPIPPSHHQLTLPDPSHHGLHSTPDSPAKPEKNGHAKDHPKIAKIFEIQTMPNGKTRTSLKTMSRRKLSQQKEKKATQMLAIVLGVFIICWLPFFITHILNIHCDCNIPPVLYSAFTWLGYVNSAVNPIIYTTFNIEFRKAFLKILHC
T1 sequence (P28223 whole entry): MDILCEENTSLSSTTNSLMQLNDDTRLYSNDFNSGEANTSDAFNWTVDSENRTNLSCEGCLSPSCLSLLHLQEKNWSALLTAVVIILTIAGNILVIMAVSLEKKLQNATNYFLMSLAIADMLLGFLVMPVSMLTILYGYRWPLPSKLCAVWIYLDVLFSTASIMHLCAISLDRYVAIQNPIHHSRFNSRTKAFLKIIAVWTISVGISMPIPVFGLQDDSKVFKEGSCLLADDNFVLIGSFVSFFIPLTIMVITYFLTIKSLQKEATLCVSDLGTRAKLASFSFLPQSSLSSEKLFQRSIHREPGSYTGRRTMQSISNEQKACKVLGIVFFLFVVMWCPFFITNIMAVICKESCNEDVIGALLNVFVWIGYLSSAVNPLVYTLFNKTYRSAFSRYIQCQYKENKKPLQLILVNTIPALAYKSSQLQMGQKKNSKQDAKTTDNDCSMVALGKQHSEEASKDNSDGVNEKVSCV
D(1B) dopamine receptor (Homo sapiens), sequence (P21918 whole entry): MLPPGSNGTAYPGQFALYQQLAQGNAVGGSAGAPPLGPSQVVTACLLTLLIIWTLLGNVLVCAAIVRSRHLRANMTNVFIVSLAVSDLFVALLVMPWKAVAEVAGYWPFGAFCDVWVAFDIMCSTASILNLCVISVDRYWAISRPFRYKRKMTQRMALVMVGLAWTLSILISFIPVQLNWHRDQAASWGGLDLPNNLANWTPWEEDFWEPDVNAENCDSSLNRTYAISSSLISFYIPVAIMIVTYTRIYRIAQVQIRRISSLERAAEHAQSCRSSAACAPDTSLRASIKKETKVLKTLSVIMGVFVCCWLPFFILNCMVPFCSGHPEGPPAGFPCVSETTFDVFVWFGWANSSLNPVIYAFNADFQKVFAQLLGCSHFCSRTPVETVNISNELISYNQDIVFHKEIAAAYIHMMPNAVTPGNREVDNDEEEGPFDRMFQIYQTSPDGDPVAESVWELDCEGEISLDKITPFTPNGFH

`CN1CCc2cccc3c2[C@H]1Cc1ccc(O)c(O)c1-3` [APOMORPHINE] gave a Stability [1] of 100%, a Stability [2] of 89.33% and a Stability [3] of 36.68%. The Stability [4] was 80.43% and the Stability [5] was 99.73%.

`COc1cc2c3c(c1OC)-c1cc([N+](=O)[O-])ccc1CC3N(C)CC2` (stereo not drawn) gave an inhibition [6] of less than 50%, a Ki [7] of 1350 nM and a Ki (D(2) dopamine receptor [8]) of 478 nM. For the same compound, the Ki (D(1A) dopamine receptor [9]) was 726 nM and the Ki [10] was 458 nM.

`C=CCOc1c(OC)cc2c3c1-c1cc(N)ccc1CC3N(C)CC2` (stereo not drawn) showed an inhibition [6] of less than 50%, a Ki [7] of 234 nM and an inhibition [11] of less than 50%. The Ki (D(2) dopamine receptor [8]) was 759 nM and the Ki (D(1A) dopamine receptor [9]) was 830 nM.

`COc1cc2c3c(c1OC)-c1cc(NC(C)=O)ccc1CC3N(C)CC2` (stereo not drawn) gave an inhibition [6] of less than 50%, an inhibition [12] of less than 50% and an inhibition [11] of less than 50%. The Ki (D(2) dopamine receptor [8]) was 978 nM and the Ki (D(1A) dopamine receptor [9]) was 756 nM.

Compound `COc1cc2c3c(c1O)-c1cc(N)ccc1CC3N(C)CC2` (stereo not drawn) has a Ki [7] of 850 nM, an inhibition [11] of less than 50% and a Ki (D(1A) dopamine receptor [9]) of 301 nM.

Work on `COc1cc2c3c(c1OC)-c1cc(N)ccc1CC3N(C)CC2` (stereo not drawn) yielded an inhibition [6] of less than 50%, a Ki [7] of 585 nM and a Ki (D(2) dopamine receptor [8]) of 260 nM. The Ki (D(1A) dopamine receptor [9]) was 691 nM and the Ki [10] was 156 nM.

With `C#CCOc1c(OC)cc2c3c1-c1cc(NC(C)=O)ccc1CC3N(C)CC2` (stereo not drawn) the inhibition [6] was less than 50%, the Stability [1] was 100% and the Ki [7] was 1270 nM. For the same compound, the Stability [2] was 99.76%, the Stability [3] was 102.69% and the inhibition [11] was less than 50%. For the same compound, the Ki (D(2) dopamine receptor [8]) was 854 nM, the Stability [4] was 95.6% and the Stability [5] was 97.8%. It also gave a Ki (D(1A) dopamine receptor [9]) of 58 nM.

Work on `O=[N+]([O-])c1ccc2c(c1)-c1cccc3c1C(C2)NCC3` (stereo not drawn) yielded an inhibition [6] of less than 50%, an inhibition (D(2) dopamine receptor [13]) of less than 50% and an inhibition [12] of less than 50%. For the same compound, the inhibition (D(1A) dopamine receptor [14]) was less than 50% and the Ki [10] was 350 nM.

With `C=CCOc1c(OC)cc2c3c1-c1cc(NC(C)=O)ccc1CC3N(C)CC2` (stereo not drawn) the inhibition [6] was less than 50%, the inhibition (D(2) dopamine receptor [13]) was less than 50% and the Ki [7] was 1220 nM. For the same compound, the inhibition [11] was less than 50% and the Ki (D(1A) dopamine receptor [9]) was 155 nM.

Work on `COc1cc2c3c(c1OC1CC1)-c1cc([N+](=O)[O-])ccc1CC3N(C)CC2` (stereo not drawn) yielded an inhibition [6] of less than 50%, an inhibition (D(2) dopamine receptor [13]) of less than 50% and an inhibition [12] of less than 50%. It also gave an inhibition (D(1A) dopamine receptor [14]) of less than 50% and a Ki [10] of 439 nM.

Work on `CCCC(=O)Nc1ccc2c(c1)-c1cccc3c1C(C2)N(C)CC3` (stereo not drawn) yielded an inhibition [6] of less than 50%, an inhibition (D(2) dopamine receptor [13]) of less than 50% and an inhibition [12] of less than 50%. For the same compound, the inhibition (D(1A) dopamine receptor [14]) was less than 50% and the Ki [10] was 83 nM.

For `CC(C)[N+](C)(CCOC(=O)C1c2ccccc2Oc2ccccc21)C(C)C` [PROPANTHELINE], the Stability [1] was 100%, the Stability [2] was 65.33% and the Stability [3] was 0.16%. For the same compound, the Stability [4] was 6.4% and the Stability [5] was 36.32%.

`C#CCOc1c(OC)cc2c3c1-c1cc(N)ccc1CC3N(C)CC2` (stereo not drawn) gave an inhibition [6] of less than 50%, a Ki [7] of 378 nM and a Ki (D(2) dopamine receptor [8]) of 431 nM. It also gave a Ki (D(1A) dopamine receptor [9]) of 709 nM and a Ki [10] of 428 nM.

For `CN1CCc2cccc3c2C1Cc1ccc(N)cc1-3` (stereo not drawn), the inhibition [6] was less than 50%, the Ki [7] was 672 nM and the Ki (D(2) dopamine receptor [8]) was 679 nM. The inhibition (D(1A) dopamine receptor [14]) was less than 50% and the Ki [10] was 269 nM.

Work on `C=CCOc1c(OC)cc2c3c1-c1cc([N+](=O)[O-])ccc1CC3N(C)CC2` (stereo not drawn) yielded an inhibition [6] of less than 50%, an inhibition (D(2) dopamine receptor [13]) of less than 50% and an inhibition [12] of less than 50%. For the same compound, the inhibition (D(1A) dopamine receptor [14]) was less than 50% and the Ki [10] was 1680 nM.

For `COc1cc2c3c(c1O)-c1cc([N+](=O)[O-])ccc1CC3N(C)CC2` (stereo not drawn), the inhibition [6] was less than 50%, the Ki [7] was 908 nM and the Ki (D(2) dopamine receptor [8]) was 320 nM. For the same compound, the Ki (D(1A) dopamine receptor [9]) was 316 nM and the Ki [10] was 548 nM.

With `C#CCOc1c(OC)cc2c3c1-c1cc([N+](=O)[O-])ccc1CC3N(C)CC2` (stereo not drawn) the inhibition [6] was less than 50%, the inhibition [12] was less than 50% and the Ki (D(2) dopamine receptor [8]) was 2050 nM. The Ki (D(1A) dopamine receptor [9]) was 536 nM and the Ki [10] was 206 nM.

For `COc1cc2c3c(c1OC1CC1)-c1cc(N)ccc1CC3N(C)CC2` (stereo not drawn), the inhibition [6] was less than 50%, the Ki [7] was 110 nM and the inhibition [11] was less than 50%. The Ki (D(2) dopamine receptor [8]) was 963 nM and the Ki (D(1A) dopamine receptor [9]) was 1110 nM.

For `CC(=O)Nc1ccc2c(c1)-c1cccc3c1C(C2)N(C)CC3` (stereo not drawn), the inhibition [6] was less than 50%, the inhibition (D(2) dopamine receptor [13]) was less than 50% and the Ki [7] was 1060 nM. For the same compound, the inhibition (D(1A) dopamine receptor [14]) was less than 50% and the Ki [10] was 93 nM.

Work on `CN1CCc2cccc3c2C1Cc1ccc([N+](=O)[O-])cc1-3` (stereo not drawn) yielded an inhibition [6] of less than 50%, an inhibition (D(2) dopamine receptor [13]) of less than 50% and an inhibition [12] of less than 50%. For the same compound, the Ki (D(1A) dopamine receptor [9]) was 928 nM and the Ki [10] was 100 nM.
